{"source": "patent US20030125352A1", "about": "“Therapeutic tropane compounds” (priority 2001, published 2003)", "key": {"serotonin transporter": {"target": "T1, serotonin transporter (Macaca mulatta, UniProt Q9MYX0)", "T1 construct": "The serotonin transporter was assayed in caudate-putamen membranes using conditions similar to those for the dopamine transporter; from tissue; host or cells: caudate-putamen membranes of adult cynomolgus and rhesus monkeys", "T1 sequence (Q9MYX0 whole entry)": "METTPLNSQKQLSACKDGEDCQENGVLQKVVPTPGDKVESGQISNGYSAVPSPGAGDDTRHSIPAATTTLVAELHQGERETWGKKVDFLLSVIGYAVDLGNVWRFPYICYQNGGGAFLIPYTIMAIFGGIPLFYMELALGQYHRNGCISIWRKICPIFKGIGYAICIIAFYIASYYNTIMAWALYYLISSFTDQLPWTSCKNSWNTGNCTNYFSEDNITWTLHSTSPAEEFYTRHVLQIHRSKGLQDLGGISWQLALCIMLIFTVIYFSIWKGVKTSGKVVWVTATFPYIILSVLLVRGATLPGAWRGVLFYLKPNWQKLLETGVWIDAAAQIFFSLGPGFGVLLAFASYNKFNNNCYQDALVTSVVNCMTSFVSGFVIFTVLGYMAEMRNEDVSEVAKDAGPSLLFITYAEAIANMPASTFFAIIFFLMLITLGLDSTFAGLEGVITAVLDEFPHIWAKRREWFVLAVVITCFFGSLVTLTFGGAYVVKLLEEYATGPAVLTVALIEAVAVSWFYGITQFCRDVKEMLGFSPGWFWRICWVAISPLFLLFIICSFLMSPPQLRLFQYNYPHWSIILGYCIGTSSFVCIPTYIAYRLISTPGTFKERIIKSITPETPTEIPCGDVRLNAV", "test": "Serotonin transporter assay: inhibition of {3H}citalopram binding in caudate-putamen membranes", "design": "species or system rhesus or cynomolgus monkey"}, "dopamine transporter": {"target": "T2, dopamine transporter (Macaca fascicularis, UniProt Q9GJT6)", "T2 construct": "The caudate-putamen was dissected from coronal slices and yielded 1.4±0.4 g tissue; Membranes were prepared as described previously; from tissue; host or cells: caudate-putamen membranes of adult cynomolgus and rhesus monkeys", "T2 sequence (Q9GJT6 whole entry)": "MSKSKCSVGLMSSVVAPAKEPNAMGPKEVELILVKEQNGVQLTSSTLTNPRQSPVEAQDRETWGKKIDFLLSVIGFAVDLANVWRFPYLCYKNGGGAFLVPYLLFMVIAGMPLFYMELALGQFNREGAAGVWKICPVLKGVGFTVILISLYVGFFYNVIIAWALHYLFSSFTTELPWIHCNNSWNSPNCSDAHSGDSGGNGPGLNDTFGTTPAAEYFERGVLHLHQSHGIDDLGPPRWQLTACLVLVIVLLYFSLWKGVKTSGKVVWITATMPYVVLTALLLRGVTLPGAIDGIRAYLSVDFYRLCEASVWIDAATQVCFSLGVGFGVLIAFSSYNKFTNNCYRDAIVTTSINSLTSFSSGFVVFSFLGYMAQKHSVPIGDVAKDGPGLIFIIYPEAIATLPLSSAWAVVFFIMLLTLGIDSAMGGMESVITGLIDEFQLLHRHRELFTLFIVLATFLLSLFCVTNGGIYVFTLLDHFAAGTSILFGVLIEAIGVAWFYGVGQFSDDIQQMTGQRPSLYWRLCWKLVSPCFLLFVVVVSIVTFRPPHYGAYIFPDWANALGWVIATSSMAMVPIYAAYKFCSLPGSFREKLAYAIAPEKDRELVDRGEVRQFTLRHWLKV", "test": "Dopamine transporter assay: inhibition of {3H}WIN 35,428 binding in caudate-putamen membranes", "design": "species or system rhesus or cynomolgus monkey", "settings": "for IC50: {3H}WIN 35,428 binding, monkey caudate-putamen; for SERT/DAT: selectivity ratio of IC50 values"}, "DAT": {"test_system": "DAT", "settings": "literature value, cited from earlier work; for pIC50: binding to the DAT"}, "[1]": {"settings": "IC50 (nM) SERT, Table 2, monkey caudate-putamen"}, "[2]": {"settings": "Table 2, monkey caudate-putamen, read-out: IC50 (nM) SERT"}, "[3]": {"settings": "Table 2, read-out: IC50 (nM) DAT"}}, "note": "pIC50: −log10 of the molar value. Like-named read-outs stand apart in the source and are kept apart here.", "data": [{"smiles": "COC(=O)[C@@H]1[C@H]2C[C@H](O)[C@@H](C[C@H]1c1ccc(Cl)c(Cl)c1)N2C", "note": "(relative stereo) [Compound 17a, 2β-Carbomethoxy-3α-(3,4-dichlorophenyl) -6β-hydroxy-8-methyl-8-azabicyclo{3.2.1}octane]", "values": [{"measurement": "IC50", "setting": "serotonin transporter; [1]", "value": 1450, "unit": "nM"}, {"measurement": "IC50", "setting": "dopamine transporter; IC50 (nM) DAT, Table 2", "value": 6.09, "unit": "nM"}, {"measurement": "SERT/DAT", "setting": "dopamine transporter; Table 2", "value": 238}]}, {"smiles": "COC(=O)[C@@H]1[C@H]2CC[C@@H](C[C@H]1c1ccc(Cl)c(Cl)c1)N2C", "note": "[Compound 16a]", "values": [{"measurement": "IC50", "setting": "serotonin transporter; [1]", "value": 27.7, "unit": "nM"}, {"measurement": "IC50", "setting": "dopamine transporter; IC50 (nM) DAT, Table 2", "value": 0.38, "unit": "nM"}, {"measurement": "SERT/DAT", "setting": "dopamine transporter; Table 2", "value": 73}]}, {"smiles": "COC(=O)[C@@H]1[C@H]2[C@H](O)C[C@@H](C[C@H]1c1ccc(F)cc1)N2C", "note": "[Compound 18c, 2β-Carbomethoxy-3α-(4-fluorophenyl)-7β-hydroxy-8-methyl-8-azabicyclo{3.2.1}octane]", "values": [{"measurement": "IC50", "setting": "serotonin transporter; [2]", "value": "> 20000", "unit": "nM"}, {"measurement": "SERT/DAT", "setting": "dopamine transporter; Table 2", "value": ">120"}, {"measurement": "IC50", "setting": "dopamine transporter; [3]", "value": 110, "unit": "nM"}]}, {"smiles": "COC(=O)C1C(c2ccc(Cl)c(Cl)c2)CC2CC(O)C1N2C", "note": "(single isomer, unassigned) [(1S)-18a]", "values": [{"measurement": "IC50", "setting": "serotonin transporter; [1]", "value": 1220, "unit": "nM"}, {"measurement": "IC50", "setting": "dopamine transporter; IC50 (nM) DAT, Table 2", "value": 0.76, "unit": "nM"}]}, {"smiles": "COC(=O)[C@@H]1[C@H]2C[C@H](O)[C@@H](C[C@H]1c1ccc(F)cc1)N2C", "note": "(relative stereo) [Compound 17c, 2βCarbomethoxy-3α-(4-fluorophenyl)-6β-hydroxy-8-methyl-8-azabicyclo{3.2.1}octane]", "values": [{"measurement": "IC50", "setting": "serotonin transporter; [1]", "value": 5820, "unit": "nM"}, {"measurement": "IC50", "setting": "dopamine transporter; IC50 (nM) DAT, Table 2", "value": 739, "unit": "nM"}, {"measurement": "SERT/DAT", "setting": "dopamine transporter; Table 2", "value": 8}]}, {"smiles": "COC(=O)[C@@H]1[C@H]2C[C@H](O)[C@@H](C[C@H]1c1ccccc1)N2C", "note": "(relative stereo) [Compound 17d, 2β-Carbomethoxy-3α-phenyl-6β-hydroxy-8-methyl-8-azabicyclo{3.2.1}octane]", "values": [{"measurement": "IC50", "setting": "serotonin transporter; [1]", "value": "> 10000", "unit": "nM"}, {"measurement": "IC50", "setting": "dopamine transporter; IC50 (nM) DAT, Table 2", "value": 3530, "unit": "nM"}, {"measurement": "SERT/DAT", "setting": "dopamine transporter; Table 2", "value": ">3"}]}, {"smiles": "COC(=O)C1C(c2ccc(F)cc2)CC2CCC1N2C", "note": "(stereo not drawn) [WIN 35,428, 2-carbomethoxy-3-(4-fluorophenyl)-N-methyltropane]", "values": [{"measurement": "pIC50", "setting": "DAT", "value": "[…]"}]}, {"smiles": "CCC(=O)C1C(c2ccc(Cl)c(Cl)c2)CC2CC(O)C1N2C", "note": "(stereo not drawn) [Compound 26, 1-{3α-(3,4-Dichlorophenyl)-7β-hydroxy-8-methyl-8-azabicyclo{3.2.1}oct-2-yl}propan-1-one]", "values": [{"measurement": "IC50", "setting": "serotonin transporter; Table 1, monkey caudate-putamen, read-out: IC50 (nM) SERT", "value": 2520, "unit": "nM"}, {"measurement": "IC50", "setting": "dopamine transporter; Table 1, read-out: IC50 (nM) DAT", "value": 1.1, "unit": "nM"}]}, {"smiles": "COC(=O)C1C(c2ccc3ccccc3c2)CC2C(O)CC1N2C", "note": "(stereo not drawn) [Compound 17b, 2β-Carbomethoxy-3α-(2-naphthyl)-6β-hydroxy-8-methyl-8-azabicyclo{3.2.1}octane]", "values": [{"measurement": "IC50", "setting": "serotonin transporter; [2]", "value": 180, "unit": "nM"}, {"measurement": "SERT/DAT", "setting": "dopamine transporter; Table 2", "value": 6}, {"measurement": "IC50", "setting": "dopamine transporter; [3]", "value": 32, "unit": "nM"}]}, {"smiles": "COC(=O)[C@@H]1[C@H]2CC[C@@H](C[C@H]1c1ccc(F)cc1)N2C", "note": "(relative stereo) [Compound 16c]", "values": [{"measurement": "IC50", "setting": "serotonin transporter; [1]", "value": 1130, "unit": "nM"}, {"measurement": "IC50", "setting": "dopamine transporter; IC50 (nM) DAT, Table 2", "value": 17.9, "unit": "nM"}, {"measurement": "SERT/DAT", "setting": "dopamine transporter; Table 2", "value": 63}]}, {"smiles": "COC(=O)[C@@H]1[C@H]2[C@H](O)C[C@@H](C[C@H]1c1ccccc1)N2C", "note": "(relative stereo) [Compound 18d, 2β-Carbomethoxy-3α-phenyl-7β-hydroxy-8-methyl-8-azabicyclo{3.2.1}octane]", "values": [{"measurement": "IC50", "setting": "serotonin transporter; [1]", "value": "> 100000", "unit": "nM"}, {"measurement": "IC50", "setting": "dopamine transporter; IC50 (nM) DAT, Table 2", "value": 518, "unit": "nM"}, {"measurement": "SERT/DAT", "setting": "dopamine transporter; Table 2", "value": ">190"}]}, {"smiles": "COC(=O)C1C(c2ccc(Cl)c(Cl)c2)CC2CCC1N2C", "note": "(stereo not drawn) [Compound O-401, 2-carbomethoxy-3-(3,4-dichlorophenyl)-N -methyltropane]", "values": [{"measurement": "pIC50", "setting": "DAT", "value": 8.96}]}, {"smiles": "COC(=O)C1C(c2ccc3ccccc3c2)CC2CC(O)C1N2C", "note": "(stereo not drawn) [Compound 18b, 2β-Carbomethoxy-3α-(2-naphthyl)-7β-hydroxy-8-methyl-8-azabicyclo{3.2.1}octane]", "values": [{"measurement": "IC50", "setting": "serotonin transporter; [2]", "value": 94, "unit": "nM"}, {"measurement": "SERT/DAT", "setting": "dopamine transporter; Table 2", "value": 34}]}, {"smiles": "COC(=O)[C@@H]1[C@H]2[C@H](O)C[C@@H](C[C@H]1c1ccc(Cl)c(Cl)c1)N2C", "note": "(relative stereo) [Compound 18a, 2β-Carbomethoxy-3α(3,4-dichlorophenyl)-7β-hydroxy-8-methyl-8-azabicyclo{3.2.1}octane]", "values": [{"measurement": "IC50", "setting": "serotonin transporter; [1]", "value": 1390, "unit": "nM"}, {"measurement": "IC50", "setting": "dopamine transporter; IC50 (nM) DAT, Table 2", "value": 1.19, "unit": "nM"}, {"measurement": "SERT/DAT", "setting": "dopamine transporter; Table 2", "value": "1,170"}]}, {"smiles": "COC(=O)C1C(c2ccc(Cl)c(Cl)c2)CC2CC(O)C1N2C", "note": "(single isomer, unassigned) [(1R)-18a]", "values": [{"measurement": "IC50", "setting": "serotonin transporter; [1]", "value": 5300, "unit": "nM"}, {"measurement": "IC50", "setting": "dopamine transporter; IC50 (nM) DAT, Table 2", "value": 482, "unit": "nM"}, {"measurement": "SERT/DAT", "setting": "dopamine transporter; Table 2", "value": 11}]}, {"smiles": "COC(=O)[C@H]1[C@@H](OC(=O)c2ccccc2)C[C@@H]2CC[C@H]1N2C", "note": "[(1R)-(−)-cocaine]", "values": [{"measurement": "binds at the dopamine transporter more potently than (1S)-(+)-cocaine", "setting": "DAT", "value": "about 200 fold"}]}]}
